Measured values from US20170348375A1, “DISLODGEMENT AND RELEASE OF HSC FROM THE BONE MARROW STEM CELL NICHE USING ALPHA9 INTEGRIN ANTAGONISTS” (COMMONWEALTH SCIENTIFIC AND INDUSTRIAL RESEARCH ORGANISATION, priority 2014, published 2017).
Where two headings read alike, the source gives them in different places.

Columns and labels:
[1] = test system: bone marrow progenitor cells (LSK) and HSC (LSKSLAM); experiment: In vivo bone marrow binding assay; parameters: species or system mouse
Protocol: After 5 min, bone marrow cells were isolated as previously described in D. N. Haylock et al Stem Cells, 2007, 25, 1062-1069 and J. Grassinger, et al Cytokine, 2012, 58, 218-225. Briefly, one femur, tibia and iliac crest were excised and cleaned of muscle. After removing the epi- and metaphyseal regions, bones were flushed with PBS-2% FBS to obtain whole bone marrow, which were washed with PBS-2% FBS and then immunolabelled for flow cytometry. […] For staining progenitor cells (LSK; Lineage−Sca-1^+c-kit^+) and HSC (LSKSLAM; LSKCD150+CD48−), cells were labelled with a lineage cocktail (CD3, Ter-119, Gr-1, Mac-1, B220; all antibodies APC-Cy7 conjugated), anti-Sca-1-PB, anti-c-kit-AF647, anti-CD48-FITC and anti-CD150-BV650.
Cells were washed with cold PBS (2% F BS) and then immunolabelled as described in “Antibody Cocktails” prior to flow cytometric analysis.
Sorted cells were imaged using an Olympus BX51 microscope.

human integrin α4β1 = target: T1, human integrin α4β1 (Homo sapiens, UniProt P05556+P13612); experiment: Saturation binding to α4β1 over-expressing LN18 cells (flow cytometry); settings: for Kd: α4β1 LN18 cells, read-out: Kd (dissociation constant), α4β1
T1 construct: expressed in transfected cells; host or cells: human glioblastoma LN18 (ATCC CRL-2610), retrovirally transduced
Protocol: Stable LN18 cells ((ATCC number: CRL-2610) over-expressing integrin α4β1 (LN18 α4β1) or α9β1 (LN18 α9β1)) were generated by retroviral transduction using the pMSCV-hITGA4-IRES-hITGB1 and pMSCV-hITGA9-IRES-hITGB1 vectors as previously described in J Grassinger, et al Blood, 2009, 114, 49-59 and were maintained in DMEM supplemented with 2 mM […] in 10% FBS. Transduced cells were selected by two rounds of FACS using 2.5 μg ml^−1 PE-Cy5-conjugated mouse-anti-human α4 antibody (BD Bioscience) or 20 μg ml^−1 of mouse-anti-human α9β1 antibody (Millipore) in PBS-2% FBS, followed by 0.5 μg ml^−1 of PE-conjugated goat-anti-mouse IgG (BD Bio-science). Silencing of α4 expression in LN18 and LN18 α9β1 cells was performed as described above using pSM2c-shITGA4 (Open Biosystems). α4-silenced LN18 cells (control cell line; LN18 SiA4) and LN18 α9β1 (LN18 α9β1SiA4) were negatively selected for α4 expression using FACS.
The cells were incubated at 37° C. for 60 min, washed once with TBS-2% FBS, dry pelleted and resuspended in the relevant binding buffer for flow cytometric analysis. Mean channel fluorescence was plotted against concentration and fitted to a one-site saturation ligand binding curve using GraphPad Prism 6. The dissociation constant, Kd was determined from the curves.

[2] = test system: WBC, LSK and LSKSLAM in PB; experiment: Mobilization of HSC and progenitors into peripheral blood; assay type: in vivo, mouse; settings: R-BC154, s.c., 15 and 30 mins post-injection
Protocol: For mobilization experiments, all mice received subcutaneous injections at 100 μl/10 gm body weight and PB was harvested by throat bleed using EDTA coated syringes.

T1 sequence (P13612 34-1032): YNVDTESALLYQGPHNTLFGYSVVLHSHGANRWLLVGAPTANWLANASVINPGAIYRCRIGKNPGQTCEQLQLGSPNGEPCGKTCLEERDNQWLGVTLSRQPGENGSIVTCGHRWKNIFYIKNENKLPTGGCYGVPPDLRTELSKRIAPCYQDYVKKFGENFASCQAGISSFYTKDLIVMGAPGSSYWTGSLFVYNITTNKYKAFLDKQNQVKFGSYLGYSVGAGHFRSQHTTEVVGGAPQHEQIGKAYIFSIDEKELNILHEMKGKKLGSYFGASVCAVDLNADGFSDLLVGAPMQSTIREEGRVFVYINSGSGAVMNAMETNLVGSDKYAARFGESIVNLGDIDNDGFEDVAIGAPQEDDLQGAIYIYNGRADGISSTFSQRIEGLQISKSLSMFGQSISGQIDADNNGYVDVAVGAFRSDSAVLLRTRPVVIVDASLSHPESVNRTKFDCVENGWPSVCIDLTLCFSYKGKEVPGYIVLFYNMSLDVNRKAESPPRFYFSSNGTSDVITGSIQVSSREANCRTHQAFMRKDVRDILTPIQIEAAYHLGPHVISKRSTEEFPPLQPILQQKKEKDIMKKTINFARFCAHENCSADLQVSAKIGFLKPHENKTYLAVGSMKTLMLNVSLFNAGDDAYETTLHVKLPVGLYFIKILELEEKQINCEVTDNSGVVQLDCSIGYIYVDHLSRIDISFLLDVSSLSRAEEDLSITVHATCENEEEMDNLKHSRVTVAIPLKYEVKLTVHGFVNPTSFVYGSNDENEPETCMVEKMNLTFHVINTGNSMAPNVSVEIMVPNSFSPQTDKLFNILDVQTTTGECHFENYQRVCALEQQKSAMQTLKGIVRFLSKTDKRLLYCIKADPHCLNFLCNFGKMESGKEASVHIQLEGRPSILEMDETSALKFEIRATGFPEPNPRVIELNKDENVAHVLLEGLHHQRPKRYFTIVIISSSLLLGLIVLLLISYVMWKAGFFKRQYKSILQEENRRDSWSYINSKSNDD
T1 sequence (P05556 21-798): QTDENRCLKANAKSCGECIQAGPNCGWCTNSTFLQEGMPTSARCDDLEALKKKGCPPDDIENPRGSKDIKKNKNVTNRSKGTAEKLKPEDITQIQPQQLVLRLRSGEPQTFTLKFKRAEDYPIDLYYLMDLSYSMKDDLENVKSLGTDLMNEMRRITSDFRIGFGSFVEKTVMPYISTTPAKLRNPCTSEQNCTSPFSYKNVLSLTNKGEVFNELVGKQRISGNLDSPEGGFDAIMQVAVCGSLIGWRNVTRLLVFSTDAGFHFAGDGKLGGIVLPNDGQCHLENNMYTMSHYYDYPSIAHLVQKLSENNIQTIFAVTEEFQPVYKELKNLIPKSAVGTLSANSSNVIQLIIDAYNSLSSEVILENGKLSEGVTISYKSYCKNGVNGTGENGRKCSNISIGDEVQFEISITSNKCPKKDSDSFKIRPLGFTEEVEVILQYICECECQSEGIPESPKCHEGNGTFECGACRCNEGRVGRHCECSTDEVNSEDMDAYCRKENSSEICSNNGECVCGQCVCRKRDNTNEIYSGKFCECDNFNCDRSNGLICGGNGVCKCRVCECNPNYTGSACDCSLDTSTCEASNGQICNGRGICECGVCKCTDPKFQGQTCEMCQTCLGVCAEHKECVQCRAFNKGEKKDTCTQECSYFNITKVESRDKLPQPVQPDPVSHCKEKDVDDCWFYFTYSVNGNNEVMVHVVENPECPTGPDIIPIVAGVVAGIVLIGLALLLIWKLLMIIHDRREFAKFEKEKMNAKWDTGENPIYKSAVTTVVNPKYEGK

SMILES: CCN(CC)c1ccc2c(-c3ccc(S(=O)(=O)NCc4cn(C5CC(C(=O)NC(Cc6ccc(OC(=O)N7CCCC7)cc6)C(=O)O)N(S(=O)(=O)c6ccccc6)C5)nn4)cc3S(=O)(=O)[O-])c3ccc(=[N+](CC)CC)cc-3oc2c1 (centres unmarked) [R-BC154]
- in vivo labelling of BM progenitor cells (LSK) and HSC (LSKSLAM) ([1]; 10 mg kg−1 intravenously, C57 mice, vs un-injected mice): Increased cell-associated fluorescence
- binding to BM LSK after s.c. treatment ([1]; 30 mins post-s.c.): persistent binding
- in vivo binding on α4−/−/α9−/− LSK cells ([1]; conditional KO mice injected with R-BC154): No binding
- proportion of R-BC154hi LSK and LSKSLAM cells, endosteal vs central BM ([1]; i.v. administration, C57Bl/6 mice): greater proportion of R-BC154^hi cells
- clearance following i.v. administration ([1]; i.v., mice): < 5 min
- binding on LSK in the PB compared to BM ([1]; s.c. administration): Minimal binding
- Kd (human integrin α4β1; 1 mM Ca2+/Mg2+): 38 nM
- increase in binding affinity towards α4β1 under Mn2+ activation compared to Ca2+/Mg2+ (human integrin α4β1; 1 mM Mn2+ vs Ca2+/Mg2+): 3.1 fold
- Kd (human integrin α4β1; 1 mM Mn2+): 12.4 nM
- reduction in binding affinity to α4β1 compared to compound 22 (human integrin α4β1; Ca2+/Mg2+ conditions): 1.9 fold
- number of WBC, LSK or LSKSLAM in PB [2]: not found to give significant increases
